Target: T1, IRAK4 (Homo sapiens, UniProt Q9NWZ3)
T1 construct: purchased Carna 09-145
T1 sequence (Q9NWZ3 1-460): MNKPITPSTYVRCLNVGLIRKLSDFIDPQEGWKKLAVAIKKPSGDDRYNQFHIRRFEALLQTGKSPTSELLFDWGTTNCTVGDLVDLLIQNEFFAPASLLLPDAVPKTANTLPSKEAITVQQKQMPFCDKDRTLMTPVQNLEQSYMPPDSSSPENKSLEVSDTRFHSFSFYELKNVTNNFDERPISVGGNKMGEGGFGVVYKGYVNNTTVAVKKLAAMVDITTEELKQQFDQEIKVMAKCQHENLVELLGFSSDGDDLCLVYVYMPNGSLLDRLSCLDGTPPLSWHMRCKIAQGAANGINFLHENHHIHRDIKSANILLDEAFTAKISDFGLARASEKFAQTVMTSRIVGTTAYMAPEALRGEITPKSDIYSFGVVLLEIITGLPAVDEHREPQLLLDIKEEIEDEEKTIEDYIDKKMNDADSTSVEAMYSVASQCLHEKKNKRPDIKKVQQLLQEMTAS
Assay: Enzymatic experiment for IRAK4 kinase inhibitor (HTRF KinEASE-STK, phosphorylation of STK1)
Format: biochemical
Details: 6 nM IRAK4, 0.4 uM STK1, 80 uM ATP, 37° C. for 90 min, read-out: Relative IC50
Experimental: Experimental materials: IRAK4 recombinant human […], purchased from Carna (Cat #09-145); ATP, purchased from Sigma (Cat #A7699-5G); Compound 26, purchased from Merck Millipore (Cat #531237); and HTRF KinEASE-STK Si kit, purchased from Cisbio (Cat #62ST1PEC).
Experimental method: Phosphorylation of STK1 can be detected using an HTRF assay kit. The experimental reaction was carried out in a 384-well plate (Greiner, Cat #784075) with a total reaction system of 20 uL. The reaction system mainly comprised 1× kinase buffer, […], […], 0.4 uM STK1 and 80 uM ATP. The target product prepared in Example 1 was serially diluted with DMSO at 10 concentration points, and transferred to an experimental assay plate at 100 nL. The reaction was started after 6 nM IRAK4 was added and stopped by adding a detection reagent (0.25×STK Antibody-Cryptate, 25 nM Streptavidin-XL665) after being in process at 37° C. for 90 min. After standing at room temperature for 60 min, an FRET signal was read on a Spark 10M or envision plate reader. (HTRF 665/615=signal value at 665 nm/signal value at 615 nm).
Data analysis: signal ratio (665/615) was converted to a percent rejection. Inhibition %=(max−sample)/(max−min)×100. “min” represents a ratio of signal values (665/615) for control well without enzyme, and “max” represents a ratio of signal values (665/615) for control well with […]. […] values for compounds were calculated by XLFit in the Excel. Y=Bottom+(Top−Bottom)/(1+(IC50/X)^HillSlope) Equation: […]

| SMILES | IC50 [nM] |
| --- | --- |
| Cn1c(C2CCCCC2)nc2c3c(C4CCOCC4)c[nH]c3ncc21 | 100 to 1000 |
| c1[nH]c2ncc3nc(C4CCNCC4)cn3c2c1C1CCOCC1 | < 100 |
| c1[nH]c2ncc3nc(C4CCCNC4)cn3c2c1C1CCOCC1 (centres unmarked) | < 100 |
| c1[nH]c2ncc3[nH]c(C4CCCCC4)nc3c2c1C1CCOCC1 | 100 to 1000 |
| NC1CCC(c2cn3c(cnc4[nH]cc(C5CCOCC5)c43)n2)CC1 (centres unmarked) | < 100 |
| CC(=O)N1CCC(c2cn3c(cnc4[nH]cc(C5CCOCC5)c43)n2)CC1 | > 1000 |
| CN1CCC(c2cn3c(cnc4[nH]cc(C5CCOCC5)c43)n2)CC1 | 100 to 1000 |
| CN1CCC(c2cn3c(cnc4[nH]cc(C5CCOCC5)c43)n2)C1 (centres unmarked) | 100 to 1000 |
| c1[nH]c2ncc3nc(C4CCN(C5COC5)CC4)cn3c2c1C1CCOCC1 | > 1000 |
| CC1CNCCC1c1cn2c(cnc3[nH]cc(C4CCOCC4)c32)n1 (centres unmarked) | < 100 |
| c1[nH]c2ncc3nc(C4CCOCC4)cn3c2c1C1CCOCC1 | 100 to 1000 |
| c1[nH]c2ncc3nc(C4CCCCC4)cn3c2c1C1CCOCC1 | < 100 |
| c1[nH]c2ncc3nc(C4CCC5(CC4)CNC5)cn3c2c1C1CCOCC1 | < 100 |
| NC1CCC(c2nc3c(cnc4[nH]cc(C5CCOCC5)c43)[nH]2)CC1 (centres unmarked) [drawing 311] | < 100 |
| CN1CCC(c2cn3c(cnc4[nH]cc(C5CCC(C(N)=O)CC5)c43)n2)CC1 (centres unmarked) | > 1000 |
| CN(C)C1CCC(c2cn3c(cnc4[nH]cc(C5CCOCC5)c43)n2)CC1 (centres unmarked) | < 100 |
| CC1CC(c2cn3c(cnc4[nH]cc(C5CCOCC5)c43)n2)CCN1 (centres unmarked) | 100 to 1000 |
| NC1CCC(c2nc3c(cnc4[nH]cc(C5CCOCC5)c43)[nH]2)CC1 (centres unmarked) [drawing 312] | < 100 |
| CCN1CCC(c2cn3c(cnc4[nH]cc(C5CCOCC5)c43)n2)CC1 | 100 to 1000 |
| c1[nH]c2ncc3nc(C4CCC(N5CCOCC5)CC4)cn3c2c1C1CCOCC1 (centres unmarked) | 100 to 1000 |

Source: patent US12582650B2, “IRAK4 kinase inhibitor and preparation method therefor” (ZHUHAI YUFAN BIOTECHNOLOGIES CO., LTD, priority 2019, dated 2026)
